Results taken from patent publication US20190292155A1, “THERAPEUTIC INHIBITORY COMPOUNDS” (LifeSci Pharmaceuticals, Inc., priority 2016, published 2019).
Read-outs that look alike come from different tables or passages of the source.

Molecular target: T1, human complement factor D (Homo sapiens, UniProt P00746)
T1 construct: purchased R&D Systems 1824-SE
Test: In vitro enzyme inhibition of human complement factor D (Z-Lys-SBzl/DTNB, A405)
Assay type: biochemical
Procedure: The ability of the compounds disclosed herein to inhibit human complement factor D inhibitory activity was quantified according to the 12-step protocol provided below. • 1. Prepare assay buffer: 50 mM Tris/HCl, pH 7.5, 1 M NaCl. • 2. […] Then dilute the serial concentrations of Nafamostat Mesilate 20-fold in assay buffer. • 3. […] 0.5% DMSO was in each well finally. • 4. […] Add 10 μl diluted test compounds duplicated into the 96-well plate. […] 0.5% DMSO was in each well finally. • 6. Dilute 20 mM substrate Z-Lys-SBzl (Bachem, Cat# M-1300) to 200 μM in assay buffer with 200 μM DTNB (Sigma, Catalog# D8130). • 7. […] Add 40 μl diluted Complement Factor D in the 96-well plate. • 8. Positive control well contains Complement Factor D without test compound. Negative control well contains neither Complement Factor D nor test compound. Using assay buffer, bring the total volume of all controls to 50 al. • 9. Pre-incubate the plate for 5 min at room temperature. • 10. Add 50 μl of diluted substrate/DTNB mixture into each well. […] For kinetic reading: Immediately start measuring absorbance (A405 nm) continuously and record data every 30 sec for 60 min. • 12. Data analysis • Inhibition activity of compound was evaluated by IC50. IC50 was calculated according the dose-response curve of compound fitted using GraphPadPrism with “log(inhibitor)-response (variable slope)” equation. • % inhibition was calculated by using following equation:
[formula] • Mean(NC): The average value of the negative control wells' A405 nm values. • Mean(PC): The average value of the positive control wells' A405 nm values.

[1] = biochemical assay, substrate Z-Lys-SBzl, read-out: CFD IC50

T1 sequence (P00746 26-253): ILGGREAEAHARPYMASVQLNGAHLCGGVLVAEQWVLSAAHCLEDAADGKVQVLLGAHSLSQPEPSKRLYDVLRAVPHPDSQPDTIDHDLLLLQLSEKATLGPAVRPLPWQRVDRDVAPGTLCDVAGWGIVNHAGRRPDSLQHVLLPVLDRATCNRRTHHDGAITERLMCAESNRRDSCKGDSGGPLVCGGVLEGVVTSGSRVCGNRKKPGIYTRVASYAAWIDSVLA

Question: How did the IC50 [1] turn out when `N#Cc1cccc2c(C(N)=O)nn(CC(=O)N(CC(=O)NCc3cccc(Cl)c3F)C3CC3)c12` [Example 105, 1-(2-((2-((3-chloro-2-fluorobenzyl)amino)-2-oxoethyl)(cyclopropyl)amino)-2-oxoethyl)-7-cyano-1H-indazole-3-carboxamide] was run?
Answer: Its IC50 is 1000 to 10000 nM.

Question: For `NC(=O)c1ccc2c(C(N)=O)nn(CC(=O)N(CC(=O)NCc3cccc(Cl)c3F)C3CC3)c2c1` [Example 100, 1-(2-((2-((3-chloro-2-fluorobenzyl)amino)-2-oxoethyl)(cyclopropyl)amino)-2-oxoethyl)-1H-indazole-3,6-dicarboxamide], which IC50 is on record?
Answer: The IC50 was under 100 nM.

Question: How did the IC50 [1] turn out when `CC(CF)N(CC(=O)NCc1cccc(Cl)c1F)C(=O)Cn1nc(C(N)=O)c2ccccc21` (centres unmarked) [Example 66, 1-(2-((2-((3-chloro-2-fluorobenzyl)amino)-2-oxoethyl)(1-fluoropropan-2-yl)amino)-2-oxoethyl)-1H-indazole-3-carboxamide] was run?
Answer: Its IC50 is 100 to 1000 nM.

Question: For `NC(=O)n1cc(CC(=O)N(CC(=O)NCc2cccc(Cl)c2F)C2CC2)c2ccccc21` [Example 41, 3-(2-((2-((3-chloro-2-fluorobenzyl)amino)-2-oxoethyl)(cyclopropyl)amino)-2-oxoethyl)-1H-indole-1-carboxamide], which IC50 [1] is on record?
Answer: The IC50 was 100 to 1000 nM.

Question: With `CC(CC(N)=O)N(CC(=O)NCc1cccc(Cl)c1F)C(=O)Cn1nc(C(N)=O)c2ccccc21` (centres unmarked) [Example 76, 1-(2-((4-amino-4-oxobutan-2-yl)(2-((3-chloro-2-fluorobenzyl)amino)-2-oxoethyl)amino)-2-oxoethyl)-1H-indazole-3-carboxamide] as the compound, how does the IC50 [1] read?
Answer: The IC50 was 100 to 1000 nM.

Question: With `NC(=O)c1nn(CC(=O)N(CC(=O)NCc2cccc(Cl)c2F)Cc2cccnc2)c2ccccc12` [Example 35, 1-(2-((2-((3-chloro-2-fluorobenzyl)amino)-2-oxoethyl)(pyridin-3-ylmethyl)amino)-2-oxoethyl)-1H-indazole-3-carboxamide] as the compound, how does the IC50 [1] read?
Answer: Its IC50 is 1000 to 10000 nM.

Question: How did the IC50 [1] turn out when `NC(=O)c1nn(CC(=O)N(CC(=O)NCc2cccc(Cl)c2F)C2CC2)c2c(Cl)cccc12` [Example 81, 7-chloro-1-(2-((2-((3-chloro-2-fluorobenzyl)amino)-2-oxoethyl)(cyclopropyl)amino)-2-oxoethyl)-1H-indazole-3-carboxamide] was run?
Answer: Its IC50 is under 100 nM.

Question: With `NC(=O)c1cc(C(=O)O)n(CC(=O)N(CC(=O)NCc2cccc(Cl)c2F)C2CC2)n1` [Example 44, 3-carbamoyl-1-(2-((2-((3-chloro-2-fluorobenzyl)amino)-2-oxoethyl)(cyclopropyl)amino)-2-oxoethyl)-1H-pyrazole-5-carboxylic acid] as the compound, how does the IC50 [1] read?
Answer: Its IC50 is 1000 to 10000 nM.

Question: Which IC50 [1] does the source give for `NC(=O)c1cc(C(F)(F)F)n(CC(=O)N(CC(=O)NCc2cccc(Cl)c2F)C2CC2)n1` [Example 43, 1-(2-((2-((3-chloro-2-fluorobenzyl)amino)-2-oxoethyl)(cyclopropyl)amino)-2-oxoethyl)-5-(trifluoromethyl)-1H-pyrazole-3-carboxamide] here?
Answer: The IC50 was over 10000 nM.

Question: How did the IC50 turn out when `NC(=O)c1nn(CC(=O)N(CC(=O)NCc2cccc(Cl)c2F)C2CC2)c2cc(F)ccc12` [Example 84, 1-(2-((2-((3-chloro-2-fluorobenzyl)amino)-2-oxoethyl)(cyclopropyl)amino)-2-oxoethyl)-6-fluoro-1H-indazole-3-carboxamide] was run?
Answer: Its IC50 is 100 to 1000 nM.

Question: How did the IC50 [1] turn out when `NC(=O)c1ccc2c(c1)c(C(N)=O)nn2CC(=O)N(CC(=O)NCc1cccc(Cl)c1F)C1CC1` [Example 93, 1-(2-((2-((3-chloro-2-fluorobenzyl)amino)-2-oxoethyl)(cyclopropyl)amino)-2-oxoethyl)-1H-indazole-3,5-dicarboxamide] was run?
Answer: The IC50 was 100 to 1000 nM.

Question: How did the IC50 turn out when `NC(=O)c1nn(CC(=O)N(CC(=O)NCc2cccc(Cl)c2F)C2CC2)c2ccc(Cl)cc12` [Example 80, 5-chloro-1-(2-((2-((3-chloro-2-fluorobenzyl)amino)-2-oxoethyl)(cyclopropyl)amino)-2-oxoethyl)-1H-indazole-3-carboxamide] was run?
Answer: The IC50 was 100 to 1000 nM.

Question: Which IC50 [1] does the source give for `NC(=O)c1cc(C(N)=O)n(CC(=O)N(CC(=O)NCc2cccc(Cl)c2F)C2CC2)n1` [Example 45, 1-(2-((2-((3-chloro-2-fluorobenzyl)amino)-2-oxoethyl)(cyclopropyl)amino)-2-oxoethyl)-1H-pyrazole-3,5-dicarboxamide] here?
Answer: Its IC50 is 1000 to 10000 nM.

Question: `CCC(COC)N(CC(=O)NCc1cccc(Cl)c1F)C(=O)Cn1nc(C(N)=O)c2ccccc21` (centres unmarked) [Example 61, 1-(2-((2-((3-chloro-2-fluorobenzyl)amino)-2-oxoethyl)(1-methoxybutan-2-yl)amino)-2-oxoethyl)-1H-indazole-3-carboxamide] was tested. Which IC50 [1] did it give?
Answer: Its IC50 is 1000 to 10000 nM.

Question: How did the IC50 [1] turn out when `NC(=O)c1nn(CC(=O)N(CC(=O)NCc2cccc(Cl)c2F)C2CC2)c2ccc(C(F)(F)F)cc12` [Example 95, 1-(2-((2-((3-chloro-2-fluorobenzyl)amino)-2-oxoethyl)(cyclopropyl)amino)-2-oxoethyl)-5-(trifluoromethyl)-1H-indazole-3-carboxamide] was run?
Answer: Its IC50 is 1000 to 10000 nM.

Question: How did the IC50 [1] turn out when `NC(=O)c1nn(CC(=O)N(CC(=O)NCc2cccc(Cl)c2F)C2CCOCC2)c2ccccc12` [Example 29, 1-(2-((2-((3-chloro-2-fluorobenzyl)amino)-2-oxoethyl)(tetrahydro-2H-pyran-4-yl)amino)-2-oxoethyl)-1H-indazole-3-carboxamide] was run?
Answer: The IC50 was 1000 to 10000 nM.

Question: For `CC(N(CC(=O)NCc1cccc(Cl)c1F)C(=O)Cn1nc(C(N)=O)c2ccccc21)C(C)(C)C` (centres unmarked) [Example 64, 1-(2-((2-((3-chloro-2-fluorobenzyl)amino)-2-oxoethyl)(3,3-dimethylbutan-2-yl)amino)-2-oxoethyl)-1H-indazole-3-carboxamide], which IC50 [1] is on record?
Answer: The IC50 was 100 to 1000 nM.

Question: How did the IC50 [1] turn out when `NC(=O)c1nc(CC(=O)N(CC(=O)NCc2cccc(Cl)c2F)C2CC2)n2ccccc12` [Example 42, 3-(2-((2-((3-chloro-2-fluorobenzyl)amino)-2-oxoethyl)(cyclopropyl)amino)-2-oxoethyl)imidazo[1,5-a]pyridine-1-carboxamide] was run?
Answer: The IC50 was 100 to 1000 nM.

Question: How did the IC50 turn out when `N#Cc1ccc2c(C(N)=O)nn(CC(=O)N(CC(=O)NCc3cccc(Cl)c3F)C3CC3)c2c1` [Example 86, 1-(2-((2-((3-chloro-2-fluorobenzyl)amino)-2-oxoethyl)(cyclopropyl)amino)-2-oxoethyl)-6-cyano-1H-indazole-3-carboxamide] was run?
Answer: The IC50 was 100 to 1000 nM.

Question: For `NCCN(CC(=O)NCc1cccc(Cl)c1F)C(=O)Cn1nc(C(N)=O)c2ccccc21` [Example 31, 1-(2-((2-aminoethyl)(2-((3-chloro-2-fluorobenzyl)amino)-2-oxoethyl)amino)-2-oxoethyl)-1H-indazole-3-carboxamide], which IC50 [1] is on record?
Answer: Its IC50 is 100 to 1000 nM.

Question: For `NCc1cc(Cl)c(F)c(CNC(=O)CN(C(=O)Cn2nc(C(N)=O)c3ccccc32)C2CC2)c1` [Example 101, 1-(2-((2-((5-(aminomethyl)-3-chloro-2-fluorobenzyl)amino)-2-oxoethyl)(cyclopropyl)amino)-2-oxoethyl)-1H-indazole-3-carboxamide], which IC50 [1] is on record?
Answer: Its IC50 is 1000 to 10000 nM.

Question: How did the IC50 [1] turn out when `NC(=O)c1nn(CC(=O)N(CC(=O)NCc2cc(F)cc(Cl)c2)C2CC2)c2ccccc12` [Example 103, 1-(2-((2-((3-chloro-5-fluorobenzyl)amino)-2-oxoethyl)(cyclopropyl)amino)-2-oxoethyl)-1H-indazole-3-carboxamide] was run?
Answer: The IC50 was 100 to 1000 nM.

Question: For `N#Cc1ccc2c(c1)c(C(N)=O)nn2CC(=O)N(CC(=O)NCc1cccc(Cl)c1F)C1CC1` [Example 92, 1-(2-((2-((3-chloro-2-fluorobenzyl)amino)-2-oxoethyl)(cyclopropyl)amino)-2-oxoethyl)-5-cyano-1H-indazole-3-carboxamide], which IC50 [1] is on record?
Answer: Its IC50 is 100 to 1000 nM.

Question: Which IC50 [1] does the source give for `CC(=O)c1nc(NC(=O)N(CC(=O)NCc2cccc(Cl)c2F)C2CC2)c2ccccn12` [Example 141, 2-(3-(3-acetylimidazo[1,5-a]pyridin-1-yl)-1-cyclopropylureido)-N-(3-chloro-2-fluorobenzyl)acetamide] here?
Answer: The IC50 was 100 to 1000 nM.

Question: With `CN(CC(=O)Nc1cccc(Cl)n1)C(=O)Cn1nc(C(N)=O)c2ccccc21` [Example 14, 1-(2-((2-((6-chloropyridin-2-yl)amino)-2-oxoethyl)(methyl)amino)-2-oxoethyl)-1H-indazole-3-carboxamide] as the compound, how does the IC50 [1] read?
Answer: Its IC50 is 1000 to 10000 nM.

Question: Which IC50 [1] does the source give for `CC1(C)C[C@H](O)C[C@@H](NC(=O)CN(C(=O)Cn2nc(C(N)=O)c3ccccc32)C2CC2)C1` [Example 10, 1-(2-(cyclopropyl(2-(((1S,5S)-5-hydroxy-3,3-dimethylcyclohexyl)amino)-2-oxoethyl)amino)-2-oxoethyl)-1H-indazole-3-carboxamide] here?
Answer: The IC50 was 1000 to 10000 nM.

Question: How did the IC50 [1] turn out when `Cc1ccc(CNC(=O)CN(C(=O)Cn2nc(C(N)=O)c3ccccc32)C2CC2)cc1Cl` [Example 113, 1-(2-((2-((3-chloro-4-methylbenzyl)amino)-2-oxoethyl)(cyclopropyl)amino)-2-oxoethyl)-1H-indazole-3-carboxamide] was run?
Answer: Its IC50 is 1000 to 10000 nM.

Question: Which IC50 [1] does the source give for `NC(=O)c1nn(CC(=O)N(CC(=O)NCc2cc(Cl)cc(Cl)c2)C2CC2)c2ccccc12` [Example 119, 1-(2-(cyclopropyl(2-((3,5-dichlorobenzyl)amino)-2-oxoethyl)amino)-2-oxoethyl)-1H-indazole-3-carboxamide] here?
Answer: The IC50 was 100 to 1000 nM.

Question: How did the IC50 [1] turn out when `NC(=O)c1nn(CC(=O)N(CC(=O)NCc2cc(Cl)c3[nH]ncc3c2)C2CC2)c2ccccc12` [Example 114, 1-(2-((2-(((7-chloro-1H-indazol-5-yl)methyl)amino)-2-oxoethyl)(cyclopropyl)amino)-2-oxoethyl)-1H-indazole-3-carboxamide] was run?
Answer: Its IC50 is 1000 to 10000 nM.
